Each structure is given as a SMILES string.

Seven molecules from patent US11208407B2, “Substituted phenyl compounds as indoleamine 2,3-dioxygenase (IDO) inhibitors” (Merck Sharp & Dohme Corp., priority 2017, dated 2021) can be followed below.

The target of assay [1] is T1, IDO1 (Homo sapiens, UniProt P14902). The assay is described as follows: IDO1 Cellular Assay in HeLa Cells Stimulated with IFNγ. It counts as cell-based. To be noted: IFNγ 100 ng/mL, 300 uM L-tryptophan, about 48 hours, read-out: IDO HeLa Cell Assay, IC50. The procedure: Biological Assays IDO1 Cellular Assay in HeLa Cells Stimulated with IFNγ
T1 sequence (P14902 whole entry): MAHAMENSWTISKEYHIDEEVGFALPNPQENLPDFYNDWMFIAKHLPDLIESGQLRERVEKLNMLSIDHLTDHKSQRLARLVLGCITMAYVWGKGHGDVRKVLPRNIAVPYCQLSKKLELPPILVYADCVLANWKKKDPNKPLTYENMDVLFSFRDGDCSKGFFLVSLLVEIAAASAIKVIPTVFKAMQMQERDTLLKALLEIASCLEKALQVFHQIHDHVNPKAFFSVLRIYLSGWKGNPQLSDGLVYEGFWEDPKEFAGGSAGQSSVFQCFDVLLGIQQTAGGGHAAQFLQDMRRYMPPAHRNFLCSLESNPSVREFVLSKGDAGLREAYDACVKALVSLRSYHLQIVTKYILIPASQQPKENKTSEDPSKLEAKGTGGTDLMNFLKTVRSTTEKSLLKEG
HeLa cells were cultured in complete HeLa culture medium (90% EMEM, 10% heat-inactivated fetal bovine serum) and expanded to about 1×10^9 cells. The cells were then collected and frozen down at 1×10^7 cells/vial in 1 mL frozen medium (90% complete HeLa culture medium, 10% DMSO).
Compounds to be tested were serially diluted in ten 3-fold steps in DMSO starting from 10 mM DMSO stocks in Echo low volume plate(s). Compound dilutions or DMSO alone were then dispensed from the dilution plate(s) into Greiner black 384-well assay plate(s) (catalog #781086, 50 nL/well) using an Echo 550 acoustic liquid handler (Labcyte).
Frozen HeLa cells were thawed and transferred into HeLa assay medium (99% complete HeLa culture medium, 1% Pen/Strep) with 20 mL medium/vial of cells. The cells were spun down at 250 g in a table top centrifuge for 5 min and suspended in same volume of HeLa assay medium. The cells were then counted and adjusted to a density of 2×10^5 cells/mL in HeLa assay medium. Sterile L-tryptophan were added to the cells with final concentration of 300 uM L-tryptophan. A small aliquot (2 mL/plate) of HeLa cells were set aside and were not treated with IFNγ, to serve as the Max-E control.
HeLa cells with and without IFNγ were dispensed to the respective wells of 384-well assay plates containing the compounds. The plates were incubated for about 48 hours at a 37° C., 5% CO2 incubator. Afterwards, 12 μL of 0.5 M methyl isonipecotate in dimethyl sulfoxide were added into each well and the plates were sealed and incubated at 37° C. without CO2 overnight. The plates were centrifuged for 1 min at 200×g. The resulting fluorescence was measured in a Spectramax plate reader (Molecular Devices) with a 400 nm excitation filter and a 510 nm emission filter.
The fluorescence intensity of each well was corrected for the background observed in wells with non-IFNγ-treated cells and was expressed as a fraction of the intensity observed in wells of IFNγ-treated cells and DMSO only. Potencies were calculated by linear least squares fit to the four parameter logistic IC50 equation.

Assay [2] deals with T1, IDO1. The assay is described as follows: IDO1 Human Whole Blood Assay. It counts as cell-based. On the set-up: Human whole blood was drawn in sodium heparin coated tubes from healthy internal donors; from tissue; host or cells: Human whole blood from healthy donors, stimulated with LPS and IFNγ. The following applies: LPS and IFNγ 100 ng/mL, 18 h, kynurenine by LC/MS/MS. As to the method: IDO1 Human Whole Blood Assay
Compounds to be tested were serially diluted in ten 3-fold steps in DMSO starting from 10 mM. 3 µL of compound dilutions or DMSO alone were then dispensed from the dilution plate into a polypropylene 96-well assay plate containing 97 µL of RPMI medium using an Echo 555 acoustic liquid handler (Labcyte). LPS (lipopolysaccharide) and IFNγ was prepared in RPMI to a 10× of final conc. (1000 ng/mL), final concentration is 100 ng/mL.
Human whole blood was drawn in sodium heparin coated tubes from healthy internal donors. 240 µL of blood was transferred to each of the wells of a v-bottom 96 well plate. 30 µL of compound was transferred from intermediate dilution plate, and incubated for 15 min. 30 μL from stimulants was then transferred to blood and mixed thoroughly. Plate was covered with breathable membrane and incubated at 37° C. for overnight (18 h).
On day 2, isotope labeled standard solutions of kunurenine and tryptophan was made in water at 10× concentration and 30 µL was added to the blood at 3 µM final concentration. The assay plates were centrifuged at 300×G for 10 min with no brake to separate plasma from red blood cells. 60 µL of plasma samples was removed without disturbing red blood cells. Plasma was diluted with RPMI medium in 1:1 ratio and proteins were precipitated out with two volumes of Acetonitrile. The plates were centrifuged at 4000×G for 60 min. 20 µL of supernatant was carefully transferred to a 384 well plate containing 40 µL of 0.1% formic acid in water and analyzed by LC/MS/MS.
LC/MS/MS analyses were performed using Thermo Fisher's LX4-TSQ Quantum Ultra system. This system consists of four Agilent binary high-performance liquid chromatography (HPLC) pumps and a TSQ Quantum Ultra triple quadrupole MS/MS instrument. For each sample, 5 µL were injected onto an Atlantis T3 column (2.1 mm×150 mm, 3 µm particle size) from Waters. The mobile phase gradient pumped at 0.8 mL/min was used to elute the analytes from the column at 25° C. The elution started at 0% B increasing linearly to 25% B at 6.5 min, holding at 25% for 1 min, re-equilibrating to 10 min. Mobile phase A consisted of 0.1% formic acid in water. Mobile phase B consisted of 0.1% of formic acid in acetonitrile. Data was acquired in positive mode using a HESI interface. The operational parameters for the TSQ Quantum Ultra instrument were a spray voltage of 4000 V, capillary temperature of 380° C., vaporizer temperature 400° C., shealth gas 60 arbitrary units, Aux gas 20 arbitrary units, tube lens 85 and collision gas 1.2 mTorr. SRM (selected-reaction monitoring) chromatograms of kynurenine (Q1: 209.2>Q3:94.0) and internal standard (Q1: 215.3>Q3:98.2) were collected for 90 sec. The peak area was integrated by Xcalibur Quan software. The ratios between the kynurenine generated in the reaction and 2D6-Kynurenine spiked-in internal standard were used to generate percentage inhibition and IC50 values. Compounds were titrated and IC50's were calculated by 4 parameter sigmoidal curve fitting formula.

As for `OCc1cc(C(F)(F)F)ncc1-c1ccc(C2(c3nc4ncc(Cl)cc4[nH]3)CCC2)cc1` [Example 46, [5-{4-[1-(6-chloro-1H-imidazo[4,5-b]pyridin-2-yl)cyclobutyl]phenyl}-2-(trifluoromethyl)pyridin-4-yl]methanol], the IC50 on IDO1 [1] was determined as 2.28 nM; against IDO1 [2], 238 nM.

For the molecule `OCc1cc(OC(F)F)ncc1-c1ccc(C2(c3nc4cc(Cl)ccc4[nH]3)CCC2)cc1` [Example 47, [5-{4-[1-(5-chloro-1H-benzimidazol-2-yl)cyclobutyl]phenyl}-2-(difluoromethoxy)pyridin-4-yl]methanol], the half-maximal inhibitory concentration (IC50) on IDO1 [1] amounted to 3.94 nM; against IDO1 [2], 191 nM.

`Cc1cc(OC(F)F)nc(C)c1-c1ccc(C2(c3nc4cc(Cl)ccc4[nH]3)CCC2)cc1` [Example 48, 5-chloro-2-(1-{4-[6-(difluoromethoxy)-2,4-dimethylpyridin-3-yl]phenyl}cyclobutyl)-1H-benzimidazole]: the values for the 50% inhibitory concentration (IC50) on IDO1 [1] and at IDO1 [2] were 2.44 nM and 130 nM, respectively.

Regarding `CC(C)(O)c1cc(C(F)(F)F)ncc1-c1ccc(C2(c3nc4cc(Cl)ccc4[nH]3)CCC2)cc1` [Example 49, 2-[5-{4-[1-(5-chloro-1H-benzimidazol-2-yl)cyclobutyl]phenyl}-2-(trifluoromethyl)pyridin-4-yl]propan-2-ol], the 50% inhibitory concentration (IC50) stood at 1.7 nM at IDO1 [1] and 72.9 nM on IDO1 [2].

As to `OCc1cc(C(F)(F)F)ncc1-c1ccc(C2(c3nc4ncc(Cl)cc4[nH]3)COC2)cc1` [Example 50, (5-(4-(3-(6-chloro-1H-imidazo[4,5-b]pyridin-2-yl)oxetan-3-yl)phenyl)-2-(trifluoromethyl)pyridin-4-yl)methanol], the IC50 at IDO1 [1] stood at 3.03 nM; on IDO1 [2], 4040 nM.

Regarding `OCc1cc(C(F)(F)F)ncc1-c1ccc(C2(c3nc4ccc(Cl)cc4[nH]3)COC2)cc1` [Example 51, [5-{4-[3-(6-chloro-1H-benzimidazol-2-yl)oxetan-3-yl]phenyl}-2-(trifluoromethyl)pyridin-4-yl]methanol], the IC50 on IDO1 [1] worked out at 1.76 nM; against IDO1 [2], 284 nM.

In the case of `OCc1cc(C(F)(F)F)ncc1-c1ccc(C2(c3nc4ccc(Cl)cc4[nH]3)CCC2)cc1` [Example 52, [5-{4-[1-(6-chloro-1H-benzimidazol-2-yl)cyclobutyl]phenyl}-2-(trifluoromethyl)pyridin-4-yl]methanol], the 50% inhibitory concentration (IC50) is 1.1 nM at IDO1 [1] and 91 nM against IDO1 [2].

What is called IC50 is the concentration that inhibits the measured activity by half.
